Like-named read-outs stand apart in the source and are kept apart here.

Data on eleven molecules can be found in patent US6872541B2, “Method and compositions for analysis of pentraxin receptors as indicators of disease” (Coulter International Corp., priority 2001, dated 2005).

Experiment [1] has as its target CRP receptor (pentraxin-binding moiety) on human monocytes and myelomonocytic cell lines (human). Briefly: inhibition of bCRP (about 1 µg/mL) binding to THP-1 cells, flow cytometry, non-washed assay. Background: A flow cytometer gives signals particle by particle.
For experiment [2] the target is unchanged. Briefly: 50 µgs purified human SAP added before bCRP staining of peripheral blood monocytes, flow cytometry.
Experiment [3] concerns peripheral blood monocytes. The experiment in a line: inhibition of bCRP binding to peripheral blood monocytes. The note with it: added before staining: 50 μgs CRP, 50 μgs SAP, 10 mM EDTA, 100 μgs PC, human IgG. As for the experimental part:
(§1) Normal peripheral blood and second sample peripheral blood samples were drawn into EDTA containing tubes, unless noted, and stored at room temperature. Blood was stained within 10 hours of collection. […] In addition the removal of the plasma and red cells allowed calcium to be incorporated into the buffer system without subsequent clotting. Lysis was accomplished either by adding a volume of 3 mL of ammonium chloride (Sigma) containing EDTA (Sigma) solution to each 100 μL whole blood for 10 minutes at room temperature or by using the automated T-QPrep Workstation with the ImmunoPrep Reagent System (Coulter Corporation). The ImmunoPrep Reagent System consists of an acid lyse, followed by neutralization and fixation. The lysed blood was centrifuged, the supernatant decanted and the remaining white cell pellet resuspended in 100 μL 0.01M HEPES (Sigma)—0.15M sodium chloride containing 2% Fetal Calf Serum and 2 mM calcium chloride (Sigma), pH 7.4 (HSFC). […] At the end of this time SA-DTAF at a 1:500 dilution (3.6 μg) and 10-20 μL of the appropriate antibody or isotype combination was added for an additional 15 minutes on ice. Cells were then washed with 3 mL HSFC, centrifuged and resuspended to 1 mL in HSFC (0.3% paraformaldehyde was added to ammonium chloride-lysed cells). Stained cells were kept on ice and analyzed within the hour.

The subject of experiment [4] is THP-1 cells. Briefly: inhibition of the binding of bCRP to THP-1 cells. On the set-up: species or system human. The note with it: for effect on binding of bCRP to THP-1 cells: washed assay, 5 mM EDTA in the primary incubation, PC inclusion or exclusion from the reaction mixture. From the text: Staining proceeded using the previously determined optimal non-washed conditions. […] All other staining conditions were as previously described using bHSA as the control.

In experiment [5] the test system is Granulocytes (CD13+ or CD16+). As to conditions: gated by scatter and CD13+ or CD16+. As for the experimental part:
as §1, with “Cells were then washed with 3 mL HSFC, centrifuged and resuspended to 1 mL in HSFC (0.3% paraformaldehyde was added to ammonium chloride-lysed cells).” left out, “hour. […]” for “hour.”
(§2) A total of six different normal blood samples were drawn, three individual donors on two separate occasions, and evaluated within 30-60 minutes of collection. […]

Experiment [6] relates to T cell populations (CD4+ or CD8+). The note with it: lymphocyte scatter. On the procedure:
as §1, with “Cells were then washed with 3 mL HSFC, centrifuged and resuspended to 1 mL in HSFC (0.3% paraformaldehyde was added to ammonium chloride-lysed cells).” left out, “hour. […]” for “hour.”
as §2

Experiment [7] has as its system peripheral blood monocytes. Briefly: flow cytometric binding of bCRP:SA-DTAF to peripheral blood monocytes. More on the design: species or system human. As for the experimental part: (§3) Blood was stained within 10 hours of collection.
This concentration was used for all subsequent staining. Freshly drawn blood was evaluated within 30 to 60 minutes of collection and examined with specific markers identifying cell populations to ensure that the receptor binding pattern was similar to that obtained up to 10 hours later.
To ensure that enough monocytes were collected for the analysis stop counts were set to collect at least 1000 monocyte events based on forward and side scatter parameters.
Two individual donors were evaluated each day. The concentration of SA-DTAF was kept constant at a 1:500 dilution in HSFC (3.6 μgs). Peripheral blood monocyte binding was used to determine the optimal concentration. The percent positive values were expressed relative to the 2% cursor placed on the same population stained with the bHSA negative control. The choice of a 2% negative cursor instead of the RFI was made since a subset population was suspected due to the appearance of both a positive and negative stained monocyte population.
Single color, two or three-color staining was used along with monocyte forward and side scatter parameters to enumerate the percentage of positively stained cells. A negative staining control, bHSA:SA-DTAF was always run to establish the negative cursor placement. […] The samples were then evaluated for any differences in result due to gender, ethnic origin or age. […] No significant pattern or correlation was observed between the ages of 24 to 65 years and the binding of CRP to monocytes.

Experiment [8] has as its system HL-60 cells. The experiment in a line: flow cytometric ligand binding assay of bCRP:SA-DTAF on untreated, DMSO- or PMA-induced cells. On the set-up: species or system human. On the procedure:
(§4) Flow cytometric analysis was performed immediately.
HL-60 was induced towards either the granulocyte or monocyte pathway with DMSO or phorbol-12-myristate-13-acetate (PMA), respectively. To induce the myelocyte differentiation pathway of HL-60 cells into mature myelocytes or monocytes, a concentration of 1.2% DMSO (Baxter Research, Midvale, Utah) included in the media was added to 2.5×10^5 cells/mL for 6 to 14 days. Monocyte differentiation of HL60 cells was promoted by exposing 5×10^5 cells/mL to 16 nM PMA for 48-72 hours prior to harvest. Untreated cells were always harvested along with the treated cells on the day of testing. A control using the same concentration of PMA dissolution media (DMSO) was also monitored. Viability of cells was determined by trypan blue exclusion and was always greater than 95% except for PMA treated cells that consistently were at 84% due to removal of the adherent cells from the flask via scraping. Prior to staining, the cells were washed with 10 mM HEPES, 150 mM sodium chloride buffer, pH 7.4 containing 0.01% sodium azide, 2% heat-inactivated fetal calf serum and 2 mM calcium chloride (HSFC) and resuspended to 1×10^7 cells/mL.

The subject of experiment [9] is Daudi cells. The experiment in a line: flow cytometric ligand binding assay of bCRP:SA-DTAF on cell lines. On the set-up: species or system human. As to conditions: washed assay. As for the experimental part: as §4
The subject of experiment [10] is Raji cells. Described as above. More on the design: species or system human. As for the experimental part: as §4
The subject of experiment [11] is U937 cells. The description is as above. The note with it: washed assay. On the set-up: species or system human. As for the experimental part:
as §4

Experiment [12] deals with KG-1a cells. The experiment is described as above. As to conditions: washed assay. On the set-up: species or system human. On the procedure: as §4
Experiment [13] relates to MOLT-4 cells. As to conditions: washed assay.
Protocol: (§5) After 30 minutes on ice the exposed cells were either washed with 3 mL cold HFCS, centrifuged at 500×g for 3 minutes and resuspended in 100 μL cold HSFC, or left alone to compare washed and non-washed systems. Freshly diluted SA-DTAF in HSFC, 100 μL (9 μg SA-DTAF), was then added to the tubes and incubation proceeded for another 15 minutes on ice protected from light. The stained cells were washed using 3 mL cold HSFC, centrifuged at 500×g for 3 minutes and resuspended in 1 mL cold HSFC containing 0.3% paraformaldehyde (Sigma). Flow cytometric analysis was performed immediately.
(§6) The labeling reagent, SA-DTAF, was kept at a constant 1:200 dilution.
(§7) Target mean channels previously determined for cell lines stained with mouse IgG1-FITC were used to maintain consistency of values. The same fluorescent settings for FITC emission (LFL1) were used for all cell lines to enable direct comparison of median fluorescent intensities. […] Since cell lines consist of a relatively uniform population of cells, a Relative Fluorescent Index (RFI) comparing the level of fluorescence to the negative control was used as a more accurate representation of binding levels. The median value for the peak fluorescence (MdX) was used in place of the mean fluorescence intensity so that any skewed population shifts would be captured. […]
For experiment [14], the system named is THP-1 cells.
Protocol: as §5, §6, §7
For experiment [15], the system named is NK cells (CD56+CD16+). Briefly: three color flow cytometric analysis of bCRP binding in fresh peripheral blood. More on the design: species or system human. As to conditions: lymphocyte scatter. On the procedure: as §3
For experiment [16], the system named is monocytes. The note with it: cited from earlier work.
The subject of experiment [17] is PMN. As to conditions: cited from earlier work.
For experiment [18], the system named is lymphocytes. As to conditions: cited from earlier work.
In experiment [19] the target is isolated human peripheral blood monocytes. The note with it: requirement for calcium, optimal pH 7.4; read-out: dissociation constant; cited from earlier work.
The target in experiment [20] is CRP receptor (pentraxin-binding moiety) on human monocytes and myelomonocytic cell lines (human). The experiment in a line: 50 µgs purified CRP added before bCRP staining of peripheral blood monocytes, flow cytometry.

For “human Serum Amyloid P (from UniProt P02743 20-223) (ligand)”, the IC50 – broadly, the concentration needed to halve the response being measured – in experiment [1] stood at 0.15 nM. The percent inhibition in experiment [2] came out at 77%.

In experiment [1], “Limulus CRP (from UniProt P06205 25-242) (ligand)” showed an IC50 of 0.0087 nM. That is a picomolar value.

In the case of `O=C(O)CN(CCN(CC(=O)O)CC(=O)O)CC(=O)O` [EDTA, reference compound], the “inhibition of bCRP binding to peripheral blood monocytes” value in experiment [3] is listed as around 98%. Also, in experiment [4], the “effect on binding of bCRP to THP-1 cells” value is reported as “abolished”.

For “human SAP: another pentraxin, human Serum Amyloid P, >99% purity”, the “inhibition of bCRP binding to peripheral blood monocytes” value in [3] is on record as around 77%.

With “CRP: purified human C-reactive protein, pentameric pentraxin of 206 amino acid subunits (SEQ ID NO: 2), used unlabeled as inhibitor”, in experiment [3], the “inhibition of bCRP binding to peripheral blood monocytes” value is around 86%. In experiment [4] (non-washed assay, bCRP approximately 1 μg/mL), the “point at which 50% of the binding was inhibited (amount)” value worked out at 0.72 μgs.

As to “bCRP: purified human C-reactive protein labeled with biotin, detected with streptavidin conjugated fluorescein derivative (SA-DTAF)”, the “binding of bCRP vs negative bHSA control” value is given as “no binding of bCRP above that of the negative control” in experiment [5]; “no binding of bCRP above that of the negative control” in experiment [6]; “definite fluorescent signal above that of the negative control” in experiment [7] (monocytes selected by scatter and CD13, CD14 or CD33); “no binding of bCRP above that of the negative control” in [15]. Besides, the “binding of bCRP” value in experiment [7] (monocyte subset, dual CD14+CD16+) is given as “bound very little bCRP”. Besides, in [7] (normal donors), the “normal range of CRP binding by monocytes” value is reported as 49-90%. The “percentage of binding (monocytes)” value in experiment [7] (one-step bCRP:SA-DTAF complex) was 84.6%; in experiment [7] (two-step method with wash after primary incubation), 85.8%. In addition, the “average percent positive values of bCRP binding, monocytes gated by light scatter” value in [7] (six freshly drawn normal donors, 30-60 minutes after collection) is recorded as “approximately 70%”. The RFI in [8] (CTL: HL-60 control for PMA-treated cells (same dilution of DMSO as PMA solvent)) is 0.7; in [8] (DMSO-treated HL-60), 1.0; in experiment [8] (HL-60 treated with PMA, 48 hours (PMA-48)), 1.2; in experiment [8] (HL-60 treated with PMA, 72 hours (PMA-72)), 1.5; in experiment [8] (untreated HL60) it was 0.6; in [14] (THP-1 run at the same time as positive control for the HL-60 induction experiment), 25.1. Besides, the binding to cells result in [8] (untreated or DMSO-treated HL-60 cells, washed and no-wash systems) is recorded as “negative”. Also, the “RFI (Relative Fluorescent Index, bCRP MdX / bHSA MdX)” value in experiment [9] was “under 0.9”; in [10] (washed assay, Raji), “under 0.9”; in experiment [11], 1.3; in [12], 1.2; in experiment [13], “under 0.9”; in experiment [14] (washed assay, THP-1), 14.5. Also, the “binding (in words)” value in experiment [10] (B cell line Raji) is listed as “No binding”. In addition, in experiment [16] (other reports), the “average percent of monocytes binding” value was 67±12%.

For the molecule “CRP fragment 174-185: defined fragment of CRP, amino acid residues 174-185 of SEQ ID NO: 2 (Sigma) (IYLGGPFSPNVL; human CRP)”, the “inhibition of bCRP binding to THP-1 cells (in words)” value in [4] (non-washed assay, fragment 174-185 at 100 μgs (˜128 M solution), not repeated, other fragments up to 200 μgs) is recorded as “appeared to suppress the reaction”.

Regarding “aggregated CRP: aggregated CRP of a prior report (Zeller et al., 1986)”, the “percent of cells binding” value in experiment [17] (PMN stimulated with PMA) was 93%; in experiment [17] (resting PMN) it was “approximately 36%”; in experiment [16] (monocytes), 70%; in [18] it was 8%.

Regarding “radiolabeled CRP: radiolabeled CRP of a prior report (Ballou et al., 1989)”, in [19], the Kd was around 100 nM.

Regarding `C[N+](C)(C)CCOP(=O)(O)O` [PC, phosphorylcholine, reference compound], in [3], the “inhibition of bCRP binding to peripheral blood monocytes” value is around 1%. Moreover, in [4], the “effect on binding of bCRP to THP-1 cells” value was “no significant difference”.

B1: purified human C-reactive protein (ligand)
chain: QTDMSRKAFVFPKESDTSYVSLKAPLTKPLKAFTVCLHFYTELSSTRGYSIFSYATKRQDNEILIFWSKDIGYSFTVGGSEILFEVPEVTVAPVHICTSWESASGIVEFWVDGKPRVRKSLKKGYTVGAEASIILGQEQDSFGGNFEGSQSLVGDIGNVNMWDFVLSPDEINTIYLGGPFSPNVLNWRALKYEVQGEVFTKPQLWP
For B1, the percent inhibition in experiment [20] turned out to be 86%.
